Results as given in US20090142431A1 (U.S. Nutraceuticals, LLC d/b/a Valensa International, priority 2005, published 2009).

Columns and labels:
[1] = tested on: poxvirus vGK5; type: cell-based
[2] = compared with alpha-tocopherol; cited from earlier work

CC1=C(/C=C/C(C)=C/C=C/C(C)=C/C=C/C=C(C)/C=C/C=C(C)/C=C/C2=C(C)C(=O)C(O)CC2(C)C)C(C)(C)CC(O)C1=O (stereo not drawn) [astaxanthin, 3,3′-dihydroxy-β,β-carotene-4,4′-dione]
IC50 [1]: less than 125 ppm
ability to quench singlet oxygen relative to alpha-tocopherol [2]: over five hundred times
